Experimental data published in US6235751A, “Quinolizine carboxylic acid derivatives” (Korean Research Institute of Chemical Technology, priority 1997, dated 2001).
In brackets after ≈: the same amount, converted by molar mass. Like-named read-outs stand apart in the source and are kept apart here.

Tests used:
[1] = system: Streptococcus pyogenes A 77; assay: Antibacterial activity in vitro (MIC, two-fold agar dilution); assay type: cell-based; settings: read-out: Minimal Inhibitory Concentration (MIC)
Source text: (§1) Test 1. Antibacterial activity in vitro
2. Streptococcus pyogenes A 77

[2] = system: Staphylococcus aureus SG 511; assay: as above; assay type: cell-based; settings: SG511, Muller Hinton agar, 10^7 CFU/ml, 37° C., 18 hours, read-out: Minimal Inhibitory Concentration (MIC)
Source text: as §1
4. Staphylococcus aureus SG 511

[3] = system: Streptococcus pyogenes A 308; assay: as above; assay type: cell-based; settings: read-out: Minimal Inhibitory Concentration (MIC)
Source text: as §1
1. Streptococcus pyogenes A 308

Klebsiella oxytoca 1082E = assay: as above; settings: 18 h, read-out: Minimal Inhibitory Concentration (MIC)
[4] = system: Staphylococcus aureus 503; assay: as above; settings: Staphylococcus aureus, 503, 18 h, read-out: Minimal Inhibitory Concentration (MIC)
[5] = system: Klebsiella aerogenes 1552E; assay: as above; settings: 18 h, read-out: Minimal Inhibitory Concentration (MIC)
[6] = system: Pseudomonas aeruginosa 1771; assay: as above; assay type: cell-based; settings: Muller Hinton agar, 10^7 CFU/ml, 37° C., 18 hours, read-out: Minimal Inhibitory Concentration (MIC)
Source text: as §1
14. Pseudomonas aeruginosa 1771

[7] = system: calf thymus topoisomerase II; assay: Inhibition of topoisomerase II enzyme activity; assay type: biochemical; set-up: unit not given here; settings: concentration to inhibit the enzyme activity of topoisomerase II (calf thymus)
Source text: (§2) Test 2. Selectivity Index

Escherichia coli 078 = assay: Antibacterial activity in vitro (MIC, two-fold agar dilution); settings: Escherichia coli, 078, 18 h, read-out: Minimal Inhibitory Concentration (MIC)
Escherichia coli 1507E = assay: as above; settings: 18 h, read-out: Minimal Inhibitory Concentration (MIC)
gyrase of E. coli = gyrase of E. coli (Escherichia coli, UniProt P0AES4+P0AES6); assay: Inhibition of gyrase enzyme activity; assay type: biochemical; set-up: unit not given here; settings: concentration to inhibit the enzyme activity of gyrase of E. coli
Source text: as §2

Salmonella typhimurium = assay: Antibacterial activity in vitro (MIC, two-fold agar dilution); settings: Salmonella enterica, 18 h, read-out: Minimal Inhibitory Concentration (MIC)
[8] = system: Pseudomonas aeruginosa 9027; assay: as above; settings: Pseudomonas aeruginosa, 9027, 18 h, read-out: Minimal Inhibitory Concentration (MIC)
[9] = system: Streptococcus faecium MD 8b; assay: as above; assay type: cell-based; settings: Enterococcus faecium, MD8B, read-out: Minimal Inhibitory Concentration (MIC)
Source text: as §1
3. Streptococcus faecium MD 8b

Escherichia coli DC 0 = assay: as above; assay type: cell-based; settings: read-out: Minimal Inhibitory Concentration (MIC)
Source text: as §1

Escherichia coli DC 2 = assay: as above; assay type: cell-based; settings: DC2, Muller Hinton agar, 10^7 CFU/ml, 37° C., 18 hours, read-out: Minimal Inhibitory Concentration (MIC)
Source text: as §1

Escherichia coli TEM = assay: microbe, parasite or virus in culture; settings: 18 h, read-out: Minimal Inhibitory Concentration (MIC)
[10] = system: Staphylococcus aureus 285; assay: Antibacterial activity in vitro (MIC, two-fold agar dilution); settings: Staphylococcus aureus, 285, 18 h, read-out: Minimal Inhibitory Concentration (MIC)
[11] = system: Pseudomonas aeruginosa 1592E; assay: as above; assay type: cell-based; settings: Muller Hinton agar, 10^7 CFU/ml, 37° C., 18 hours, read-out: Minimal Inhibitory Concentration (MIC)
Source text: as §1
13. Pseudomonas aeruginosa 1592 E

[12] = system: Enterobacter cloacae 1321E; assay: microbe, parasite or virus in culture; settings: 18 h, read-out: Minimal Inhibitory Concentration (MIC)
Source text: as §1

[13] = system: gyrase of E. coli and calf thymus topoisomerase II; settings: calculated by equation 1 from IC100, Topo II and IC100, Gyrase
Experimental: as §2
Selectivity indexes of the compounds of the present invention and control compounds were measured using gyrase purified from of E. coli and calf thymus topoisomerase II obtained from Topogen. Co.
The selectivity index (S.I.) was calculated by the equation 1. [formula]
wherein, IC100, Topo II is the concentration of a compound to inhibit the enzyme activity of topoisomerase II and IC100, Gyrase is the concentration of a compound to inhibit the enzyme activity of gyrase of E. coli.

Enterobacter cloacae P99 = assay: microbe, parasite or virus in culture; settings: P99, 18 h, read-out: Minimal Inhibitory Concentration (MIC)
Source text: as §1
19. Enterobacter cloacae P 99

[14] = Streptococcus pyogenes, A77, 18 h
[15] = Streptococcus pyogenes, A308, 18 h

Chain of gyrase of E. coli (P0AES4 whole entry, one chain of several): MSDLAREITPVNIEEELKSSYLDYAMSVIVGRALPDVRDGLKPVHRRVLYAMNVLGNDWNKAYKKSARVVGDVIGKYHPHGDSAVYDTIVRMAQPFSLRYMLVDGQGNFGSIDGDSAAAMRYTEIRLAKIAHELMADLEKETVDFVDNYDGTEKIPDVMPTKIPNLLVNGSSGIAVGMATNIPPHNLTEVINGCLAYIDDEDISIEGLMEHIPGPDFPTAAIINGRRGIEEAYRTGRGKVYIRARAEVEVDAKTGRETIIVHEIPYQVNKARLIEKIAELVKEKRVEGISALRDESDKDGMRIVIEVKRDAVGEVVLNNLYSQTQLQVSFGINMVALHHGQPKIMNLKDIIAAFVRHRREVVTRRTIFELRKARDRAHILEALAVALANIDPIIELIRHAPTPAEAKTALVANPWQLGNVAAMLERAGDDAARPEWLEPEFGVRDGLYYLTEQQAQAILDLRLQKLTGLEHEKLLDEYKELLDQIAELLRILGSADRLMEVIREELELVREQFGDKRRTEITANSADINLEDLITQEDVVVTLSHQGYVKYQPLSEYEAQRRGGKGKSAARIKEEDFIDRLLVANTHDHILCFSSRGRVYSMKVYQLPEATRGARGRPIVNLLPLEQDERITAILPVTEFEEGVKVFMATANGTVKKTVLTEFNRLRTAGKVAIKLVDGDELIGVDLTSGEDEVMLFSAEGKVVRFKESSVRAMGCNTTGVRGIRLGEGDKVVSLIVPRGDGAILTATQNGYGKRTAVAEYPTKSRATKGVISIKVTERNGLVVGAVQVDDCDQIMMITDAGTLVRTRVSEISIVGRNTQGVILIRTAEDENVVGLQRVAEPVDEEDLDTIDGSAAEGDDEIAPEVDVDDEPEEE

Compound	MIC [1, 14] [µg/mL]	MIC [2] [µg/mL]	MIC [3, 15] [µg/mL]	MIC (Klebsiella oxytoca 1082E) [µg/mL]	MIC [4] [µg/mL]	MIC [5] [µg/mL]	MIC [6] [µg/mL]	IC100, Topo II [7]	MIC (Escherichia coli 078) [µg/mL]	MIC (Escherichia coli 1507E) [µg/mL]	IC100, Gyrase (gyrase of E. coli)	MIC (Salmonella typhimurium) [µg/mL]	MIC [8] [µg/mL]	MIC ([9]; 18 h) [µg/mL]	MIC (Escherichia coli DC 0; Escherichia coli, DC0, 18 h) [µg/mL]	MIC (Escherichia coli DC 2) [µg/mL]	MIC (Escherichia coli TEM) [µg/mL]	MIC [10] [µg/mL]	MIC [11] [µg/mL]	MIC [12] [µg/mL]	further results
O=C(O)c1cn(C2CC2)c2cc(N3CCNCC3)c(F)cc2c1=O [Ciprofloxacin, 1-cyclopropyl-6-fluoro-7-(piperazin-1-yl)-4-oxoquinoline-3-carboxylic acid, reference compound]	0.781 (≈ 2.36 µM)	0.195 (≈ 0.589 µM)	3.12 (≈ 9.43 µM)	< 0.002	0.391 (≈ 1.18 µM)	0.013 (≈ 0.0392 µM)	0.195 (≈ 0.589 µM)	500	0.004 (≈ 0.0121 µM)	0.007 (≈ 0.0211 µM)	0.5	0.007 (≈ 0.0211 µM)	0.195 (≈ 0.589 µM)	0.391 (≈ 1.18 µM)	0.195 (≈ 0.589 µM)	0.049 (≈ 0.148 µM)	0.007 (≈ 0.0211 µM)	0.781 (≈ 2.36 µM)	0.195 (≈ 0.589 µM)	–	–
Cc1c(N2CC3=CCCN[C@H]3C2)c(F)cn2c(=O)c(C(=O)O)cc(C3CC3)c12 [Example 1, 8-{[(R)-2,8-diazabicyclo[4.3. 0]non-5-en]-8-yl}-1-cyclopropyl-7-fluoro-9-methyl-4-oxo-4H-quinolizine-3-carboxylic acid]	–	0.007 (≈ 0.0183 µM)	–	< 0.002	0.007 (≈ 0.0183 µM)	0.013 (≈ 0.0339 µM)	0.098 (≈ 0.256 µM)	1,000	< 0.002	0.007 (≈ 0.0183 µM)	0.5	0.004 (≈ 0.0104 µM)	0.195 (≈ 0.509 µM)	–	–	0.013 (≈ 0.0339 µM)	0.007 (≈ 0.0183 µM)	0.013 (≈ 0.0339 µM)	0.098 (≈ 0.256 µM)	< 0.002	MIC ([1]; A77, Streptococcus pyogenes A 77, Muller Hinton agar, 10^7 CFU/ml, 37° C., 18 hours): 0.025 µg/mL (≈ 0.0652 µM); MIC ([3]; A308, Streptococcus pyogenes A 308, Muller Hinton agar, 10^7 CFU/ml, 37° C., 18 hours): 0.049 µg/mL (≈ 0.128 µM); S.I. (Selectivity Index) [13]: 2,000; MIC (Enterobacter cloacae P99): 0.004 µg/mL (≈ 0.0104 µM); MIC ([9]; Streptococcus faecium MD 8b, Muller Hinton agar, 10^7 CFU/ml, 37° C., 18 hours): 0.025 µg/mL (≈ 0.0652 µM); MIC (Escherichia coli DC 0; DC0, Escherichia coli DC 0, Muller Hinton agar, 10^7 CFU/ml, 37° C., 18 hours): 0.049 µg/mL (≈ 0.128 µM)
Cc1c(N2CC(CN)C(OCc3cccnc3)C2)c(F)cn2c(=O)c(C(=O)O)cc(C3CC3)c12 (stereo not shown) [Example 16, 8-{[3-(3-pyridylmethyl)oxy-4-aminomethylpyrrolidine]-1-yl}-1-cyclopropyl-7-fluoro-9-methyl-4-oxo-4H-quinolizine-3-carboxylic acid]	0.049 (≈ 0.105 µM)	0.013 (≈ 0.0279 µM)	0.098 (≈ 0.21 µM)	< 0.002	0.013 (≈ 0.0279 µM)	0.013 (≈ 0.0279 µM)	0.195 (≈ 0.418 µM)	1,000	< 0.002	0.013 (≈ 0.0279 µM)	0.5	0.004 (≈ 0.00857 µM)	0.195 (≈ 0.418 µM)	0.049 (≈ 0.105 µM)	0.098 (≈ 0.21 µM)	0.013 (≈ 0.0279 µM)	0.007 (≈ 0.015 µM)	0.013 (≈ 0.0279 µM)	0.195 (≈ 0.418 µM)	< 0.002	S.I. (Selectivity Index) [13]: 2,000; MIC (Enterobacter cloacae P99): 0.004 µg/mL (≈ 0.00857 µM)
CC1CN(c2c(F)c(N)c3c(=O)c(C(=O)O)cn(C4CC4)c3c2F)CC(C)N1 (stereo not shown) [Sparfloxacin, 1-cyclopropyl-5-amino-6,8-difluoro-7-(3,5-dimethylpiperazin-1-yl)-4-oxoquinoline-3-carboxylic acid, reference compound]	0.195 (≈ 0.497 µM)	0.098 (≈ 0.25 µM)	0.391 (≈ 0.996 µM)	< 0.002	0.049 (≈ 0.125 µM)	0.025 (≈ 0.0637 µM)	0.781 (≈ 1.99 µM)	500	0.004 (≈ 0.0102 µM)	0.025 (≈ 0.0637 µM)	1.0	0.007 (≈ 0.0178 µM)	0.781 (≈ 1.99 µM)	0.391 (≈ 0.996 µM)	0.195 (≈ 0.497 µM)	0.025 (≈ 0.0637 µM)	0.013 (≈ 0.0331 µM)	0.049 (≈ 0.125 µM)	0.781 (≈ 1.99 µM)	0.004 (≈ 0.0102 µM)	S.I. (Selectivity Index) [13]: 500; MIC (Enterobacter cloacae P99): 0.007 µg/mL (≈ 0.0178 µM)
